Target: AMPK
Assay: AMPK activation, enzyme-linked immunosorbent assay
Format: biochemical
Conditions: Table 13, compounds of Table 6
Outline: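 AMPK activation by test compounds was measured by enzyme-linked immunosorbent assay.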

**Q.** For CS(=O)(=O)c1ccc(CN2CCN(C(=O)c3ccc4oc(C(=O)NC5CCN(Cc6ccc(C#N)cc6)CC5)cc4c3)CC2)cc1OC(F)(F)F [Compound 6-111, N-(1-(4-cyanobenzyl)piperidin-4-yl)-5-(4-(4-(methylsulfonyl)-3-(trifluoromethoxy)benzyl)piperazine-1-carbonyl) benzofuran-2-carboxamide], which EC50 is on record?
**A.** 100 to 1000 nM

**Q.** CS(=O)(=O)c1ccc(CN2CCN(C(=O)c3ccc4oc(C(=O)NC5CCN(Cc6ccc(C#N)cc6)CC5)cc4c3)CC2)cc1Cl [Compound 6-112, 5-(4-(3-chloro-4-(methylsulfonyl)benzyl)piperazine-1-carbonyl)-N-(1-(4-cyanobenzyl)piperidin-4-yl)benzofuran-2-carboxamide] was tested. Which EC50 did it give?
**A.** < 100 nM

**Q.** Which EC50 does the source give for CS(=O)(=O)c1ccc(O[C@H]2CCN(C(=O)c3ccc4oc(C(=O)NC5CCN(Cc6ccc(C#N)cc6)CC5)cc4c3)C[C@@H]2F)cc1 [Compound 6-113, N-(1-(4-cyanobenzyl)piperidin-4-yl)-5-((3,4-trans)-3-fluoro-4-(4-(methylsulfonyl)phenoxy)piperidine-1-carbonyl) benzofuran-2-carboxamide] here?
**A.** < 100 nM

**Q.** Which EC50 does the source give for COc1ccc(CN2CCC(NC(=O)c3cc4cc(C(=O)N5CC[C@H](Oc6ccc(S(C)(=O)=O)cc6)[C@@H](F)C5)ccc4o3)CC2)cc1 [Compound 6-114, 5-((3,4-trans)-3-fluoro-4-(4-(methylsulfonyl)phenoxy)piperidine-1-carbonyl)-N-(1-(4-methoxybenzyl)piperidin-4-yl) benzofuran-2-carboxamide] here?
**A.** < 100 nM

**Q.** CS(=O)(=O)c1ccc(O[C@H]2CCN(C(=O)c3ccc4oc(C(=O)NC5CCN(Cc6ccc(OC(F)(F)F)cc6)CC5)cc4c3)C[C@@H]2F)cc1 [Compound 6-115, 5-((3,4-trans)-3-fluoro-4-(4-(methylsulfonyl)phenoxy)piperidine-1-carbonyl)-N-(1-(4-(trifluoromethoxy)benzyl)piperidin-4-yl)benzofuran-2-carboxamide] was tested. Which EC50 did it give?
**A.** < 100 nM

**Q.** How did the EC50 turn out when N#Cc1ccc(CN2CCC(NC(=O)c3cc4cc(C(=O)N5CCN(c6ccc(C(F)(F)F)cc6)CC5)ccc4o3)CC2)cc1 [Compound 6-116, N-(1-(4-cyanobenzyl)piperidin-4-yl)-5-(4-(4-(trifluoromethyl)phenyl)piperazine-1-carbonyl) benzofuran-2-carboxamide] was run?
**A.** < 100 nM

**Q.** Which EC50 does the source give for N#Cc1ccc(CN2CCC(NC(=O)c3cc4cc(C(=O)N5CCN(c6cc(C(F)(F)F)cc(C(F)(F)F)c6)CC5)ccc4o3)CC2)cc1 [Compound 6-117, 5-(4-(3,5-bis(trifluoromethyl)phenyl)piperazine-1-carbonyl)-N-(1-(4-cyanobenzyl)piperidin-4-yl)benzofuran-2-carboxamide] here?
**A.** 1000 to 10000 nM

**Q.** For N#Cc1ccc(CN2CCC(NC(=O)c3cc4cc(C(=O)N5CCN(c6ccc(Cl)cc6Cl)CC5)ccc4o3)CC2)cc1 [Compound 6-118, N-(1-(4-cyanobenzyl)piperidin-4-yl)-5-(4-(2,4-dichlorophenyl)piperazine-1-carbonyl)benzofuran-2-carboxamide], which EC50 is on record?
**A.** < 100 nM

**Q.** For COc1ccc(CN2CCC(NC(=O)c3cc4cc(C(=O)N5CCN(c6ccc(C(F)(F)F)cc6)CC5)ccc4o3)CC2)cc1 [Compound 6-119, N-(1-(4-methoxybenzyl)piperidin-4-yl)-5-(4-(4-(trifluoromethyl)phenyl)piperazine-1-carbonyl) benzofuran-2-carboxamide], which EC50 is on record?
**A.** < 100 nM

**Q.** For COc1ccc(CN2CCC(NC(=O)c3cc4cc(C(=O)N5CCN(c6cc(C(F)(F)F)cc(C(F)(F)F)c6)CC5)ccc4o3)CC2)cc1 [Compound 6-120, 5-(4-(3,5-bis(trifluoromethyl)phenyl)piperazine-1-carbonyl)-N-(1-(4-methoxybenzyl)piperidin-4-yl)benzofuran-2-carboxamide], which EC50 is on record?
**A.** < 100 nM

**Q.** Which EC50 does the source give for COc1ccc(CN2CCC(NC(=O)c3cc4cc(C(=O)N5CCN(c6ccc(Cl)cc6Cl)CC5)ccc4o3)CC2)cc1 [Compound 6-121, 5-(4-(2,4-dichlorophcnyl)piperazine-1-carbonyl)-N-(1-(4-methoxybenzyl)piperidin-4-yl)benzofuran-2-carboxamide] here?
**A.** < 100 nM

**Q.** N#Cc1ccc(CN2CCC(NC(=O)c3cc4cc(C(=O)N5CCC(S(=O)(=O)c6ccc(F)cc6)CC5)ccc4o3)CC2)cc1 [Compound 6-122, N-(1-(4-cyanobenzyl)piperidin-4-yl)-5-(4-(4-fluorophenylsulfonyl)piperidine-1-carbonyl) benzofuran-2-carboxamide] was tested. Which EC50 did it give?
**A.** 100 to 1000 nM

**Q.** For CS(=O)(=O)c1ccc(CN2CCN(C(=O)c3ccc4oc(C(=O)NC5CCN(Cc6ccc(C#N)cc6)CC5)cc4c3)CC2)cc1 [Compound 6-123, N-(1-(4-cyanobenzyl)piperidin-4-yl)-5-(4-(4-(methylsulfonyl)benzyl)piperazine-1-carbonyl) benzofuran-2-carboxamide], which EC50 is on record?
**A.** < 100 nM

**Q.** Which EC50 does the source give for N#Cc1ccc(CN2CCC(NC(=O)c3cc4cc(C(=O)N5CCC(Oc6ccc(S(=O)(=O)C(F)(F)F)cc6)CC5)ccc4o3)CC2)cc1 [Compound 6-124, N-(1-(4-cyanobenzyl)piperidin-4-yl)-5-(4-(4-(trifluoromethylsulfonyl)phenoxy)piperidine-1-carbonyl)benzofuran-2-carboxamide] here?
**A.** < 100 nM

**Q.** COc1ccc(-c2cnn(C3CCN(C(=O)c4ccc5oc(C(=O)NC6CCN(Cc7ccc(C#N)cc7)CC6)cc5c4)CC3)c2)cc1 [Compound 6-125, N-(1-(4-cyanobenzyl)piperidin-4-yl)-5-(4-(4-(4-methoxyphenyl)-1H-pyrazol-1-yl)piperidine-1-carbonyl)benzofuran-2-carboxamide] was tested. Which EC50 did it give?
**A.** < 100 nM

**Q.** How did the EC50 turn out when Cc1cc2oc(C(=O)NC3CCN(Cc4ccc(C#N)cc4)CC3)cc2cc1NC(=O)C1CCN(c2ccc(C#N)cc2)CC1 [Compound 6-126, N-(2-(1-(4-cyanobenzyl)piperidin-4-ylcarbamoyl)-6-methylbenzofuran-5-yl)-1-(4-cyanophenyl)piperidine-4-carboxamide] was run?
**A.** < 100 nM

**Q.** For N#Cc1ccc(CN2CCC(NC(=O)c3cc4cc(C(=O)N5CCN(Cc6ccc(C(F)(F)F)cc6)CC5)ccc4o3)CC2)cc1 [Compound 6-127, N-(1-(4-cyanobenzyl)piperidin-4-yl)-5-(4-(4-(trifluoromethyl)benzyl)piperazine-1-carbonyl) benzofuran-2-carboxamide], which EC50 is on record?
**A.** < 100 nM

**Q.** N#Cc1ccc(CN2CCC(NC(=O)c3cc4cc(C(=O)N5CCN(Cc6ccc(S(=O)(=O)C(F)(F)F)cc6)CC5)ccc4o3)CC2)cc1 [Compound 6-128, N-(1-(4-cyanobenzyl)piperidin-4-yl)-5-(4-(4-(trifluoromethylsulfonyl)benzyl)piperazine-1-carbonyl)benzofuran-2-carboxamide] was tested. Which EC50 did it give?
**A.** < 100 nM

**Q.** Which EC50 does the source give for COc1ccc(CN2CCC(NC(=O)c3cc4cc(C(=O)N5CCN(Cc6ccc(C(F)(F)F)cc6)CC5)ccc4o3)CC2)cc1F [Compound 6-129, N-(1-(3-fluoro-4-methoxybenzyl)piperidin-4-yl)-5-(4-(4-(trifluoromethyl)benzyl)piperazine-1-carbonyl) benzofuran-2-carboxamide] here?
**A.** < 100 nM

**Q.** COc1ccc(CN2CCC(NC(=O)c3cc4cc(C(=O)N5CCN(Cc6ccc(S(C)(=O)=O)c(C)c6)CC5)ccc4o3)CC2)cc1F [Compound 6-130, N-(1-(3-fluoro-4-methoxybenzyl)piperidin-4-yl)-5-(4-(3-methyl-4-(methylsulfonyl)benzyl)piperazine-1-carbonyl) benzofuran-2-carboxamide] was tested. Which EC50 did it give?
**A.** < 100 nM

**Q.** COc1ccc(CN2CCC(NC(=O)c3cc4cc(C(=O)N5CCN(Cc6ccc(S(=O)(=O)C7CC7)cc6)CC5)ccc4o3)CC2)cc1F [Compound 6-131, 5-(4-(4-(cyclopropylsulfonyl)benzyl)piperazine-1-carbonyl)-N-(1-(3-fluoro-4-methoxybenzyl)piperidin-4-yl)benzofuran-2-carboxamide] was tested. Which EC50 did it give?
**A.** < 100 nM

**Q.** With COc1ccc(CN2CCC(NC(=O)c3cc4cc(C(=O)N5CCN(Cc6ccc(S(C)(=O)=O)c(C(F)(F)F)c6)CC5)ccc4o3)CC2)cc1F [Compound 6-132, N-(1-(3-fluoro-4-methoxybenzyl)piperidin-4-yl)-5-(4-(4-(methylsulfonyl)-3-(trifluoromethyl)benzyl)piperazine-1-carbonyl) benzofuran-2-carboxamide] as the compound, how does the EC50 read?
**A.** < 100 nM

**Q.** How did the EC50 turn out when COc1ccc(CN2CCC(NC(=O)c3cc4cc(C(=O)N5CCN(Cc6ccc(S(C)(=O)=O)c(Cl)c6)CC5)ccc4o3)CC2)cc1F [Compound 6-133, 5-(4-(3-chloro-4-(methylsulfonyl)benzyl)piperazine-1-carbonyl)-N-(1-(3-fluoro-4-methoxybenzyl)piperidin-4-yl)benzofuran-2-carboxamide] was run?
**A.** < 100 nM

**Q.** With COc1ccc(CN2CCC(NC(=O)c3cc4cc(C(=O)N5CCN(Cc6ccc(S(=O)(=O)C(F)(F)F)cc6)CC5)ccc4o3)CC2)cc1F [Compound 6-134, N-(1-(3-fluoro-4-methoxybenzyl)piperidin-4-yl)-5-(4-(4-(trifluoromethylsulfonyl)benzyl)piperazine-1-carbonyl)benzofuran-2-carboxamide] as the compound, how does the EC50 read?
**A.** < 100 nM

**Q.** CS(=O)(=O)c1ccc(OC2CCN(C(=O)c3ccc4oc(C(=O)NC5CCN(Cc6ccc(OC(F)(F)F)cc6)CC5)cc4c3)CC2)cc1 [Compound 6-135, 5-(4-(4-(methylsulfonyl)phenoxy)piperidine-1-carbonyl)-N-(1-(4-(trifluoromethoxy)benzyl)piperidin-4-yl)benzofuran-2-carboxamide] was tested. Which EC50 did it give?
**A.** < 100 nM

**Q.** With O=C(NC1CCN(Cc2ccc(OC(F)(F)F)cc2)CC1)c1cc2cc(C(=O)N3CCC(Oc4ccc(S(=O)(=O)C(F)(F)F)cc4)CC3)ccc2o1 [Compound 6-136, N-(1-(4-(trifluoromethoxy)benzyl)piperidin-4-yl)-5-(4-(4-(trifluoromethylsulfonyl)phenoxy)piperidine-1-carbonyl)benzofuran-2-carboxamide] as the compound, how does the EC50 read?
**A.** < 100 nM

**Q.** For COc1ccc(CN2CCC(NC(=O)c3cc4cc(C(=O)N5CCC(Oc6ccc(S(=O)(=O)C(F)(F)F)cc6)CC5)ccc4o3)CC2)cc1F [Compound 6-137, N-(1-(3-fluoro-4-methoxybenzyl)piperidin-4-yl)-5-(4-(4-(trifluoromethylsulfonyl)phenoxy)piperidine-1-carbonyl)benzofuran-2-carboxamide], which EC50 is on record?
**A.** < 100 nM
